Measurements: BindingDB's records for doi:10.1016/j.bmcl.2006.01.032 (Central Pharmaceutical Research Institute, 2006)

Assay: Inhibition of HCV RNA replication in Huh5-2 cells after 48 hrs

| SMILES | EC50 [µM] |
| --- | --- |
| O=C(O)c1ccc2c(c1)nc(-c1ccc(OC(c3ccc(F)cc3)c3ccc(F)cc3)cc1)n2C1CCCCC1 [2-(4-(bis(4-fluorophenyl)methoxy)phenyl)-1-cyclohexyl-1H-benzo[d]imidazole-5-carboxylic acid] | 2.2 |
| O=C(O)c1ccc2c(c1)nc(-c1ccc(OC(c3cccc(F)c3)c3cccc(F)c3)cc1)n2C1CCCCC1 [2-(4-(bis(3-fluorophenyl)methoxy)phenyl)-1-cyclohexyl-1H-benzo[d]imidazole-5-carboxylic acid] | 2.8 |
| O=C(O)c1ccc2c(c1)nc(-c1ccc(OC(c3ccc(Cl)cc3)c3ccc(Cl)cc3)cc1)n2C1CCCCC1 [2-(4-(bis(4-chlorophenyl)methoxy)phenyl)-1-cyclohexyl-1H-benzo[d]imidazole-5-carboxylic acid] | 3.6 |
| Cc1ccc(C(Oc2ccc(-c3nc4cc(C(=O)O)ccc4n3C3CCCCC3)cc2)c2ccc(C)cc2)cc1 [1-cyclohexyl-2-(4-(dip-tolylmethoxy)phenyl)-1H-benzo[d]imidazole-5-carboxylic acid] | 3.7 |
| CN(C)C(=O)c1ccc(C(Oc2ccc(-c3nc4cc(C(=O)O)ccc4n3C3CCCCC3)c(F)c2)c2ccc(C(=O)N(C)C)cc2)cc1 [2-{4-[Bis-(4-dimethylcarbamoyl-phenyl)-methoxy]-2-fluoro-phenyl}-1-cyclohexyl-1H-benzoimidazole-5-carboxylic acid] | 1.2 |

Second part, the compound after the results:

| EC50 [µM] | SMILES |
| --- | --- |
| 1.1 | O=C(O)c1ccc2c(c1)nc(-c1ccc(OC(c3ccccc3)c3cccnc3)cc1F)n2C1CCCCC1 (stereo not given) [1-Cyclohexyl-2-[2-fluoro-4-(phenyl-pyridin-3-yl-methoxy)-phenyl]-1H-benzoimidazole-5-carboxylic acid] |
| 1.6 | O=C(O)c1ccc2c(c1)nc(-c1ccc(OC(c3ccc(F)cc3)c3ccc(F)cc3)cc1F)n2C1CCCCC1 [2-(4-(bis(4-fluorophenyl)methoxy)-2-fluorophenyl)-1-cyclohexyl-1H-benzo[d]imidazole-5-carboxylic acid] |
| 1.9 | O=C(O)c1ccc2c(c1)nc(-c1ccc(OC(c3ccccc3)c3ccccc3)cc1F)n2C1CCCCC1 [2-(4-(benzhydryloxy)-2-fluorophenyl)-1-cyclohexyl-1H-benzo[d]imidazole-5-carboxylic acid] |
| 2.6 | O=C(O)c1ccc2c(c1)nc(-c1ccc(OC(c3cccnc3)c3cccnc3)cc1F)n2C1CCCCC1 [1-Cyclohexyl-2-[4-(di-pyridin-3-yl-methoxy)-2-fluoro-phenyl]-1H-benzoimidazole-5-carboxylic acid] |
| 2.6 | O=C(O)c1ccc2c(c1)nc(-c1ccc(OC(c3ccccc3)c3ccccc3)cc1)n2C1CCCCC1 [2-(4-(benzhydryloxy)phenyl)-1-cyclohexyl-1H-benzo[d]imidazole-5-carboxylic acid] |
